# Assays:
# [1] = biological target: T1, human cDNA expressed CYP3A4 (Homo sapiens, UniProt P08684); assay: Metabolic stability (hCYP3A4); type: in vitro ADME; conditions: 2 μM, 60 min at 37° C.
# T1 construct: purchased Gentest
# Description: Metabolic Stability (hCYP34A4). The relative stability of the substrate was determined by measuring the amount of substrate remaining following incubation with human cDNA expressed CYP3A4 microsomal preparations (Gentest, 6 pmol) against a control microsomal incubation containing no active cytochrome P450. The assay was performed in a 96-well plate format. Each compound was incubated at a concentration of 2 μM for 60 min at 37° C. LC-MS/MS was used for determining the compound remaining after incubation. The results were expressed as % remaining.
# [2] = Theoretical maximum absorbable dose (MAD), rat intestine; conditions: for MAD (ug) rat (PAMPA): calculated using PAMPA permeability
# Description: (§1) To evaluate the intestinal absorption potential of selected compounds, the maximum absorbable dose (MAD) in mouse, rat and human intestines was also calculated using a modification of the original equation (Johnson 1996, Hilgers 2003): MAD (mg)=S·Pe·(A/ILV)·SIV·SITT (Eq. 1), where S is the solubility measured at pH 7.4 (mg/ml), Pe is the permeability measured in artificial membranes (PAMPA) or in the apical to basolateral direction of Caco-2 cells (cm/sec), A is the intestinal surface area (cm^2), ILV is the intestinal lumen volume (cm^3), SIV is the small intestinal volume (ml) and SITT is the small intestinal transit time (sec).
# [3] = system: Renin mRNA in As4.1 cells; assay: Renin mRNA inhibition in murine juxtaglomerular cell line As4.1; type: cell-based; conditions: Mus musculus, 24 h, real time PCR normalized versus β-actin, read-out: Renin mRNA inh.As4.1/wt
# Description: As4.1 cells (80% subconfluent) were treated in complete medium with compounds of the invention at 10^−8, 10^−9 and 10^−10 M for 24 h. Total RNA was extracted using RNeasy Mini kit (Qiagen); treated with DNase I (Qiagen) and Reverse Transcription Reagent (Applied Biosystems) with Random Examers were used for reverse transcription according to the manufacturers' instructions. Real Time PCR analysis was performed in multiplex using commercially available β-actin VIC-conjugated probe (cat. n. 4352341E, Applied Biosystems) and custom designed mRENIN FAM-conjugated probe (Assay by Design, Applied Biosystems; Forward: […]; Reverse: […]; Probe: FAM-[…]-MGB). Reactions were performed in a 25 μL volume containing 12,5 μl 2× Master Mix (Applied Biosystems), 10 ng/reaction/well cDNA, and 2,5 μM each gene-specific primer. An ABI PRISM 7700 analyzer (Applied Biosystems) was used at 50° C. for 2 minutes and 95° C. for 10 minutes, followed by 40 cycles at 95° C. for 15 seconds and 60° C. for 1 minute. Cycle threshold (Ct) values were exported onto Excel worksheets for analysis. Test cDNA results were normalized versus mouse β-actin housekeeping gene. Fold differences in gene expression between the subtracted versus the unsubtracted populations were expressed using the method of 2^−ΔΔCt. (Table 6)
# [4] = system: NHEK; assay: Proliferation assay: NHEK normal human keratinocytes; type: cell-based; conditions: 72 h culture, CyQuant proliferation assay
# Description: (§2) Bladder cancer cell lines (T24, RT112, HT1376 and RT4 are human bladder cancer cell lines; NHEK are normal human keratinocytes) were obtained from the European Collection of Cell Cultures (Salisbury, UK). Cells were plated at 3×10^3 per well, in flat bottomed 96-well plates in 100 μl of DMEM medium containing: 5% Fetal Clone 1,50 μg/l gentamicin, 1 mM sodium pyruvate and 1% non-essential amino acids. After culturing for 24 h at 37° C. in 5% CO2, to allow cells to adhere to the plates, VDR ligands (compounds (1)-(14)) were added at concentrations ranging from 100 μM to 0.3 μM in 100 μl of above-mentioned complete medium. After a further 72 h of culture, cell proliferation was measured using a fluorescence-based proliferation assay kit. (CyQuant Cell Proliferation Assay Kit, Molecular Probes, Eugene, Oreg., USA). The IC50 was calculated from the regression curve of the titration data.
# [5] = system: RT112; assay: Proliferation assay using bladder cancer cell lines: RT112; type: cell-based, human; conditions: 72 h culture, CyQuant proliferation assay
# Description: as §2
# [6] = system: RT4; assay: Proliferation assay using bladder cancer cell lines: RT4; type: cell-based, human; conditions: 72 h culture, CyQuant proliferation assay
# Description: as §2
# [7] = system: IFN-γ production by allogeneic PBMC; assay: IFN-γ production in the mixed leukocyte response (MLR); type: cell-based; conditions: 120 h; MLR of allogeneic PBMC, 5 days, ELISA; read-out: INF-γ IC50
# Description: Immature dendritic cells (DC) were prepared as described in Romani, N. et al. (Romani, N. et al. (1996) J. Immunol. Meth. 196:137). IFN-γ production by allogeneic T cell activation in the mixed leukocyte response (MLR) was determined as described in Penna, G., et al., J Immunol., 164: 2405-2411 (2000).
# Briefly, peripheral blood mononuclear cells (PBMC) were separated from buffy coats by Ficoll gradient and the same number (3×10^5) of allogeneic PBMC from 2 different donors were co-cultured in 96-well flat-bottom plates. The vitamin D3 compounds were added to each of the cultures.
# [8] = Solubility in aqueous buffer; type: physicochemical; conditions: kinetic from dmso stock; for solubility at 2 h: pH 7, 2 h; for solubility at 24 h: pH 7, 24 h; for solubility: pH 7.4, aqueous buffer
# Description: […] A 96-well plate format assay was used. […] Solutions were filtered through a 0.22 μm and concentrations of the concentration of the compound in the filtrate was determined using LC-MS/MS in comparison with 1 and 10 μM standards. The measurements were expressed as mM.
# [9] = system: Caco-2 cells; assay: Apparent permeability on Caco-2 cells; type: in vitro ADME, Human; conditions: for Papp_A > B / Papp_B >: 10 μM, 2 h; for Mass Bal A > B: unit assumed
# Description: (§3) Apparent Permeability on Caco-2 cells. Human colon adenocarcinoma (Caco-2) cells were obtained from the American Type Culture Collection (Rockville, Md.). Permeability studies were performed using a 24-well format in both transport directions, apical to basolateral (A→B) and basolateral to apical (B→A), on Caco-2 monolayers. Fresh donor solution containing 10 μM test compound was added to either the apical or the basolateral side, while drug-free medium was placed on the opposite side. The 24-transwell plates were placed on a plate shaker at 37° C. After 2 h, the buffer from the receiving and donor chambers were collected and aliquots were analysed via LC-MS/MS. The data reported were the permeability cm·10^−6/sec and the efflux ratio.
# [10] = Apparent permeability on Caco-2 cells; type: in vitro ADME, Human; conditions: human, Caco-2, Table 8; for Papp A→B at 2 h, 10 μM: apical to basolateral, read-out: Caco2 Papp_AB; for Papp B→A at 2 h, 10 μM: basolateral to apical, read-out: Caco2 Papp_BA
# Description: as §3
# [11] = Determination of Maximum Tolerated Dose (MTD) in mice; conditions: mouse, in vivo, po; female C57BL/6 mice, p.o. daily for four days; highest dose without hypercalcemia (serum calcium >10.7 mg/dl)
# [12] = Theoretical maximum absorbable dose (MAD), mouse intestine; conditions: for MAD (ug) mouse (PAMPA): calculated using PAMPA permeability
# Description: as §1
# [13] = Theoretical maximum absorbable dose (MAD), human intestine; conditions: for MAD (ug) human (PAMPA): calculated using PAMPA permeability
# Description: as §1
# [14] = Permeability by passive diffusion (PAMPA); type: in vitro ADME; conditions: for PAMPA % Memb: % retention in the membrane; for Papp at 4 h, 10 μM: PAMPA
# Description: Permeability by Passive Diffusion (PAMPA). Experiments were performed in 96-well acceptor and donor plates using 15% soy lecithin in n-dodecane artificial membranes. The acceptor plate (96 well hydrophobic filter plate (MAIP N45, Millipore)) was prepared by adding 4 μL of artificial membrane material on the top of the filter and the plate was filled with 200 μL of HEPES buffered HBSS (pH 7.4). The donor plate (an indented 96-well plate from p-ION, MA) was filled with 200 μL of HEPES buffered HBSS (pH 7.4) containing 10 μM of the test compounds. The acceptor plate was placed onto the donor plate to form a “sandwich” and was incubated at 37° C. for 4 hours. After the incubation period, acceptor, donor and initial donor solution (reference) were analysed via LC-MS/MS. Data were reported as bilateral Peff in cm×10^−6/sec and % retention in the membrane.
# [15] = system: HT1376; assay: Proliferation assay using bladder cancer cell lines: HT1376; type: cell-based; conditions: Homo sapiens, HT-1376; 72 h culture, CyQuant proliferation assay
# Description: as §2
# [16] = system: human stromal bladder cells; assay: Basal growth of human stromal bladder cells; type: cell-based; conditions: FIG. 2
# Description: The Inventors confirmed the presence of vitamin D receptors (VDRs), as previously reported in the literature, on these cells (see below in FIG. 1).
# The maximum tolerated dose (MTD) in rats is also listed for each compound (Table 5).
# [17] = calculated using Caco2-AB permeability
# T1 sequence (P08684 whole entry): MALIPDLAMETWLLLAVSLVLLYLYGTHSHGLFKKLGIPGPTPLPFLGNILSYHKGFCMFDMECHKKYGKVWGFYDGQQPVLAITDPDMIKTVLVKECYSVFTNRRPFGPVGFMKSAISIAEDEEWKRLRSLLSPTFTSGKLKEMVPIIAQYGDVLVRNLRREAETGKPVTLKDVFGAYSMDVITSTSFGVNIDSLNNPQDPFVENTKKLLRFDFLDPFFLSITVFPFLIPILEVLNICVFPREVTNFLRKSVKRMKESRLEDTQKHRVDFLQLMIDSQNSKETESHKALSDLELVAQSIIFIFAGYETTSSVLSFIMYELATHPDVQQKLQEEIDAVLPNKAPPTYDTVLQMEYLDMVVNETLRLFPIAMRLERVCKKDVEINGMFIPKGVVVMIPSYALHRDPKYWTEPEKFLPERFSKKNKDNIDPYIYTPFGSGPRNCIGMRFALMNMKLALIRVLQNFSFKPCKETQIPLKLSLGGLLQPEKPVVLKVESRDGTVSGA
SMILES,CYP3A4 stability [1] [% remaining],IC50 [3] [µM],IC50 [4] [µM],"IC50 ([5]; Homo sapiens, RT-112) [µM]","IC50 ([6]; Homo sapiens, RT-4) [µM]",IC50 [7] [nM],solubility at 2 h [8] [µM],solubility at 24 h [8] [µM],solubility [8] [µg/mL],Papp_A > B ([9]; apical to basolateral) [cm·10^−6/sec],Mass Bal A > B ([9]; apical to basolateral) [%],Mass Bal B > A ([9]; basolateral to apical) [%],Papp_B > ([9]; basolateral to apical) [cm·10^−6/sec],"Papp A→B at 2 h, 10 μM [10] [×10⁻⁶ cm/s]",MTD at 4 days [11] [µg/kg],MAD (ug) rat (PAMPA) [2] [µg],PAMPA % Memb [14] [%],"Papp at 4 h, 10 μM ([14]; pH 7.4, Table 8) [×10⁻⁶ cm/s]",MAD (ug) mouse (PAMPA) [12] [µg],MAD (ug) human (PAMPA) [13] [µg],also measured
"C[C@]12CCC/C(=C\C=C3\CC(O)C[C@H](O)C3)C1CC=C2C1(CC#CC(O)(C(F)(F)F)C(F)(F)F)CC1 (stereo partly drawn) [Compound 3, 1α,25-Dihydroxy-16-ene-20-cyclopropyl-23,24-yne-26,27-hexafluoro-19-nor-cholecalciferol]",45.5,0.00073,1,22.7,5.2,0.014,1.3,7.1,0.674,3.0,8.8,50.5,6.0,3,0.3,,,,,,"MAD (ug) rat (Caco2-AB) [2, 17]: 0.78 (Caco2-AB) ug; Papp B→A at 2 h, 10 μM [10]: 6 ×10⁻⁶ cm/s; MAD (ug) mouse (Caco2-AB) [12, 17]: 0.16 (Caco2-AB) ug; MAD (ug) human (Caco2-AB) [13, 17]: 54.43 (Caco2-AB) ug"
"C[C@]12CCC/C(=C\C=C3\CC(O)C[C@H](O)C3)C1CC=C2C1(C/C=C\C(O)(C(F)(F)F)C(F)(F)F)CC1 (stereo partly drawn) [Compound 7, 1α,25-Dihydroxy-16-ene-20-cyclopropyl-23,24-Z-ene-26,27-hexafluoro-19-nor-cholecalciferol]",58.3,0.00258,4.4,9.6,2.2,0.055,4.2,4.1,2.17,0.0,13.1,83.3,0.0,,0.3,39.99,58.1,47.8,8.20,2788.31,"Caco2 Papp_AB ([9]; apical to basolateral, Table 8): 0.00 10-6 cm/sec; Caco2 Papp_BA ([9]; basolateral to apical, Table 8): 0.00 10-6 cm/sec"
"C=C1/C(=C\C=C2/CCC[C@]3(C)C([C@H](C)CCCC(C)(C)O)CC[C@@H]23)C[C@@H](O)C[C@@H]1O (stereo partly drawn) [1,25(OH)2D3, 1,25-dihydroxycholecalciferol, reference compound]",,,4.5,,,0.0496,,,,,,,,,0.3,,,,,,"IC50 [15]: 50 µM; IC50 [5]: 28.7 µM; IC50 ([5]; Homo sapiens, RT-112, 72 h): 19 µM; IC50 [6]: 26 µM; IC50 ([6]; Homo sapiens, RT-4, 72 h): 45 µM; inhibiting the basal growth of bladder cells [16]: effective"
"CC(C)(O)CCCC1(C2=CCC3/C(=C/C=C4/CC(O)C[C@H](O)C4)CCC[C@]23C)CC1 (stereo partly drawn) [Compound 9, 1α,25-Dihydroxy-16-ene-20-cyclopropyl-19-nor-cholecalciferol]",33.3,0.00878,6.1,> 30,9.9,0.031,19.9,21.6,8.27,4.8,36.7,89.1,6.5,4.82,1,115.08,97.1,36,23.61,8023.11,"Papp at 4 h, 10 μM ([14]; pH 7.4, 10 μM, pH 7.4, 37° C., 4 hours, Table 9): 36 ×10⁻⁶ cm/s; Papp B→A at 2 h, 10 μM [10]: 6.46 ×10⁻⁶ cm/s"
"C=C1/C(=C\C=C2/CCC[C@]3(C)C(C4(C/C=C\C(O)(C(F)(F)F)C(F)(F)F)CC4)=CCC23)CC(O)C[C@@H]1O (stereo partly drawn) [Compound 8, 1α,25-Dihydroxy-16-ene-20-cyclopropyl-23,24-Z-ene-26,27-hexafluoro-cholecalciferol]",52.7,0.00161,3.6,15.5,3.3,0.033,< 1,1.6,0.533,,,,,,1,10.28,57.6,50,2.11,716.81,inhibiting the basal growth of bladder cells [16]: effective

# — US20080318911A1, “20-Cyclopropyl, 26,27-Alkyl/Haloalkyl Vitamin D3 Compounds and Methods of Use Thereof” (BIOXELL S.P.A., priority 2004, published 2008)
